In patent US10626077B2, “Salvianolic acid compound T, preparation method therefor, and use thereof” (TASLY PHARMACEUTICAL GROUP CO., LTD., priority 2013, dated 2020):

Test system: pituitrin-caused acute myocardial ischemia in rats
Assay: Pituitrin-caused experimental acute myocardial ischemia in rats (ECG J point and T wave)
Format: in vivo, SD rats
Parameters: J point / T wave: unit not given here
Protocol: Administration dose of the (R)-salvianolic acid T lyophilized powder was 10 mg/kg body-weight in high-dose group; 5.0 mg/kg body-weight in low-dose group.
2.1 Screening of Animals: Before formal experiment, rats were injected via vena caudalis with pituitrin (Pit) (1 U/kg). Normal ECG and the ECG of 5 min after injection were recorded to observe J point elevation and T wave abnormality. Animals who had abnormal ECG before injection or who were insensitive to Pit were rejected.
2.2 Grouping of Animals: The desirable rats were divided into 3 groups randomly, respectively named […]Model control group, □(R)-salvianolic acid T lyophilized powder low-dose group; □(R)-salvianolic acid T lyophilized powder high-dose group.
3. Experimental Methods: SD rats, in body-weight of 220-250 g, half male and half female, were randomly divided into groups, 10 animals in each group. The rats in the treatment groups were drenched with aqueous suspensions of different samples each day, while the rats in the model control group were drenched with equal volume of normal saline. All animals were consecutively administered for 7 days. 40 min after final administration, the rats were anesthetized and connected with devices to record lead II normal ECG. The pituitrin (Pit) was injected at a constant speed in the dosage of 1 U/kg body-weight via vena caudalis within about 10 s. ECG changes were recorded at 0 s, 5 s, 10 s, 15 s, 30 s, 45 s, 1 min, 2 min, 3 min, 4 min, 5 min, 10 min and 15 min after administration. Differences between pre injection and post injection of Pit of each group as well as between the treatment group and the model control group were compared to analyze changes of J point and T wave, and the data were analyzed by t-test.

[1] = high-dose group (10 mg/kg), 0 s after pituitrin
[2] = high-dose group (10 mg/kg), 15 s after pituitrin
[3] = high-dose group (10 mg/kg), 30 s after pituitrin
[4] = high-dose group (10 mg/kg), 45 s after pituitrin
[5] = high-dose group (10 mg/kg), 1 min after pituitrin
[6] = high-dose group (10 mg/kg), 5 min after pituitrin
[7] = high-dose group (10 mg/kg), 10 min after pituitrin
[8] = high-dose group (10 mg/kg, drenched 7 days), normal ECG before pituitrin
[9] = low-dose group (5.0 mg/kg), 0 s after pituitrin
[10] = low-dose group (5.0 mg/kg), 15 s after pituitrin
[11] = low-dose group (5.0 mg/kg), 30 s after pituitrin
[12] = low-dose group (5.0 mg/kg), 45 s after pituitrin
[13] = low-dose group (5.0 mg/kg), 1 min after pituitrin
[14] = low-dose group (5.0 mg/kg), 5 min after pituitrin
[15] = low-dose group (5.0 mg/kg), 10 min after pituitrin
[16] = low-dose group (5.0 mg/kg, drenched 7 days), normal ECG before pituitrin

SMILES: O=C(/C=C/c1ccc(O)c(O)c1/C(=C\c1ccc(O)c(O)c1)C(=O)O)O[C@H](Cc1ccc(O)c(O)c1)C(=O)O [(R)-salvianolic acid T]
- effect of anti-acute myocardiac ischemia (10.0 mg/kg): had effect of anti-acute myocardiac ischemia
- J point [1]: −0.040 ± 0.039
- T wave [1]: 0.128 ± 0.106
- J point [2]: −0.069 ± 0.035
- T wave [2]: 0.150 ± 0.101
- J point [3]: −0.058 ± 0.035
- T wave [3]: 0.100 ± 0.095
- J point [4]: −0.052 ± 0.031
- T wave [4]: 0.134 ± 0.105
- J point [5]: −0.016 ± 0.037
- T wave [5]: 0.145 ± 0.099
- J point [6]: −0.058 ± 0.049
- T wave [6]: 0.127 ± 0.104
- J point [7]: -0.061 ± 0.049
- T wave [7]: 0.150 ± 0.102
- J point [8]: −0.049 ± 0.037
- T wave [8]: 0.099 ± 0.073
- J point [9]: −0.040 ± 0.027
- T wave [9]: 0.134 ± 0.104
- J point [10]: 0.023 ± 0.039
- T wave [10]: 0.211 ± 0.109
- J point [11]: −0.052 ± 0.022
- T wave [11]: 0.189 ± 0.120
- J point [12]: −0.030 ± 0.041
- T wave [12]: 0.176 ± 0.137
- J point [13]: −0.016 ± 0.032
- T wave [13]: 0.151 ± 0.097
- J point [14]: −0.034 ± 0.052
- T wave [14]: 0.121 ± 0.101
- J point [15]: −0.025 ± 0.051
- T wave [15]: 0.142 ± 0.099
- J point [16]: −0.054 ± 0.046
- T wave [16]: 0.101 ± 0.069
